Data taken from ChEMBL document CHEMBL5303573, “Mapping human microbiome drug metabolism by gut bacteria and their genes” (Nature, 2019).

What was measured:
Type in all cases: ADME
Design in all cases: dose 2 uM
Details in all cases: 2 µM
Acylhydrolase = molecular target: T1, Acylhydrolase (Bacteroides thetaiotaomicron, UniProt Q8AA96); test: (§1) The drug is tested on Bacteroides thetaiotaomicron strain: VPI-5482 for biotransformation. The drug concentrations were measured before and after a 12-h incubation by liquid-chromatography-coupled mass spectrometry (LC–MS)
T1 sequence (Q8AA96 whole entry): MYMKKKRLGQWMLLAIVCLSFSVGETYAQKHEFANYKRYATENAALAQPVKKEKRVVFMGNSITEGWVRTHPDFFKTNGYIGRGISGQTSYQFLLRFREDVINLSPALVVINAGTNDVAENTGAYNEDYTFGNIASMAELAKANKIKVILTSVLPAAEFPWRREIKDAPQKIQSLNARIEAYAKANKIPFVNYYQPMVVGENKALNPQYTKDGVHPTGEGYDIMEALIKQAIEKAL

Regulatory protein = molecular target: T2, Regulatory protein (Bacteroides thetaiotaomicron, UniProt Q8A576); test: as §1
T2 sequence (Q8A576 whole entry): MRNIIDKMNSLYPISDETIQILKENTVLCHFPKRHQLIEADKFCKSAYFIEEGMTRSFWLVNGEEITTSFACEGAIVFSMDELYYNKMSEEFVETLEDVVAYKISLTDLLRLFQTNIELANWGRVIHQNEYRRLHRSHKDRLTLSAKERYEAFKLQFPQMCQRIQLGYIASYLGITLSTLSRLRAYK

Endoglucanase E (EGE) = molecular target: T3, Endoglucanase E (EGE) (Bacteroides thetaiotaomicron, UniProt Q8AAL9); test: as §1
T3 sequence (Q8AAL9 whole entry): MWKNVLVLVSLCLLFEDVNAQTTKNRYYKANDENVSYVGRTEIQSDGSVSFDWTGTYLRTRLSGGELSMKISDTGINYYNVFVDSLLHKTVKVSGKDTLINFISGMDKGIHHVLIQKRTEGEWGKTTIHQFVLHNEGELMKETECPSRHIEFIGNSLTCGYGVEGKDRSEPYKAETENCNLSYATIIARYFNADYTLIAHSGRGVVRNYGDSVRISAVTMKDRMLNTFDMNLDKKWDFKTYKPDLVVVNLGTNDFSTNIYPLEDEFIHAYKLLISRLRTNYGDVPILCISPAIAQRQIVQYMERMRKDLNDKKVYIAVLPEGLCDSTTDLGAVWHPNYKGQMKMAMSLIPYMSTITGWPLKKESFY

[1] = molecular target: T4, Lipolytic enzyme, G-D-S-L family (Bacteroides thetaiotaomicron, UniProt Q8A0E6); test: as §1
T4 sequence (Q8A0E6 whole entry): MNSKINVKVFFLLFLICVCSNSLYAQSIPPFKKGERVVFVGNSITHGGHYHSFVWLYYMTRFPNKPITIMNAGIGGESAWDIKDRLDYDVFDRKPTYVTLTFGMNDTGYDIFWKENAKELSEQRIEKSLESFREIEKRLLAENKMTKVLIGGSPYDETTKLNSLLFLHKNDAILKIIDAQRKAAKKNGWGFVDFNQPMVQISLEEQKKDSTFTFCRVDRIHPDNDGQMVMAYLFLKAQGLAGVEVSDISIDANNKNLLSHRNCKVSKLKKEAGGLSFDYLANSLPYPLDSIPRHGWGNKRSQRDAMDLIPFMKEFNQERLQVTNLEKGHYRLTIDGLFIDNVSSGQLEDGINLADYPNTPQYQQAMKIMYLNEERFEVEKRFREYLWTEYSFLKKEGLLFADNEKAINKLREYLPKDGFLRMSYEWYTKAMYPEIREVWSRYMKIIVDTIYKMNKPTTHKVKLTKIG

Acyltransferase = molecular target: T5, Acyltransferase (Bacteroides thetaiotaomicron, UniProt Q8A575); test: as §1
T5 sequence (Q8A575 whole entry): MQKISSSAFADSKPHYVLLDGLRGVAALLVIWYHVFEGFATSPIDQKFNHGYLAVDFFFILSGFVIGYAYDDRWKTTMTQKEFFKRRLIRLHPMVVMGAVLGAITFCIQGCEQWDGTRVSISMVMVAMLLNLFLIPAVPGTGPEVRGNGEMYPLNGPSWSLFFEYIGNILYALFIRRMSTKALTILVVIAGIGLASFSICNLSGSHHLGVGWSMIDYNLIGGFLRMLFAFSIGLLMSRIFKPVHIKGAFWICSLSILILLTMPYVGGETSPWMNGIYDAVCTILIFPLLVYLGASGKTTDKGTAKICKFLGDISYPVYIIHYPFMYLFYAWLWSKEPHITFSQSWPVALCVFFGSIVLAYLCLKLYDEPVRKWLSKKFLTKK

[2] = molecular target: T6, NADH dehydrogenase/NAD(P)H nitroreductase (Bacteroides thetaiotaomicron, UniProt Q8A8L9); test: as §1
T6 sequence (Q8A8L9 whole entry): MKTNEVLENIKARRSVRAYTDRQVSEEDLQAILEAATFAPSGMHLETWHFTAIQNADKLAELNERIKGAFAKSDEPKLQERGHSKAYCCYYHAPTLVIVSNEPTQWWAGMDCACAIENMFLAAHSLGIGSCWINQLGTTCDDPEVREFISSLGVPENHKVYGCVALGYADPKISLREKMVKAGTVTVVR

Lipoprotein = molecular target: T7, Lipoprotein (Bacteroides thetaiotaomicron, UniProt Q8A343); test: as §1
T7 sequence (Q8A343 whole entry): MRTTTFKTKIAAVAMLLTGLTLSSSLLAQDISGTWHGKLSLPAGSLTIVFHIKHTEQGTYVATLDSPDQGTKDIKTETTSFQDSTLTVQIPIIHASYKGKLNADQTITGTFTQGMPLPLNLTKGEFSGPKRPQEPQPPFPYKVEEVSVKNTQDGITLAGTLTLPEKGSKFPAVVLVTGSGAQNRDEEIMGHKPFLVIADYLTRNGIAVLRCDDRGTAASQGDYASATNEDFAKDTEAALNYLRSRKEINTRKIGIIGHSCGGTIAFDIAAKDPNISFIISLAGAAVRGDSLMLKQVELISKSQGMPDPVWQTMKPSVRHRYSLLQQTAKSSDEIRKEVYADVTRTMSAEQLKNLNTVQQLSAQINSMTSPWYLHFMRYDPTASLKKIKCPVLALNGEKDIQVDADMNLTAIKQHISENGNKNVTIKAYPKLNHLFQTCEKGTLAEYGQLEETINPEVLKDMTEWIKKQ

General stress protein = General stress protein (Bacteroides thetaiotaomicron, UniProt Q8A7U5); test: as §1
General stress protein, sequence (Q8A7U5 1-138, change not shown): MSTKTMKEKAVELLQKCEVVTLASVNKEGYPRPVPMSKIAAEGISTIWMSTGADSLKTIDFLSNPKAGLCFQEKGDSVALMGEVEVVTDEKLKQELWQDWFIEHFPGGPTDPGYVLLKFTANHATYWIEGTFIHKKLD

[3] = molecular target: T8, Sialic acid-specific acetylesterase (Bacteroides thetaiotaomicron, UniProt Q8A331); test: as §1
T8 sequence (Q8A331 whole entry): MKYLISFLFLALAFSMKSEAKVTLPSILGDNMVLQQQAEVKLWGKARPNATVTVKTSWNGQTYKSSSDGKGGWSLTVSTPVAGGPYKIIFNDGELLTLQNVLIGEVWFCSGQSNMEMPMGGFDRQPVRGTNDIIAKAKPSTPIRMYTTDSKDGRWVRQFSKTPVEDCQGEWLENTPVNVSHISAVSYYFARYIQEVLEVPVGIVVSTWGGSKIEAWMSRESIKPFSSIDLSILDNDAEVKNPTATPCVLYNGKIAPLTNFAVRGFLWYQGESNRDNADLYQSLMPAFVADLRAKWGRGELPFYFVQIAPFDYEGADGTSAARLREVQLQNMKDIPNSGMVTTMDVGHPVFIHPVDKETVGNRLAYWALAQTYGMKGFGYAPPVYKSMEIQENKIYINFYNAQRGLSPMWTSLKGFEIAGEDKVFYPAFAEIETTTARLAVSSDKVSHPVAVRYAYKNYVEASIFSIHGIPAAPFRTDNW

| Structure (SMILES) | Bacterial Biotransformation (Acylhydrolase) | Bacterial Biotransformation (Regulatory protein) | Bacterial Biotransformation (Endoglucanase E (EGE)) | Bacterial Biotransformation [1] | Bacterial Biotransformation (Acyltransferase) | Bacterial Biotransformation [2] | Bacterial Biotransformation (Lipoprotein) | Bacterial Biotransformation (General stress protein) | Bacterial Biotransformation [3] |
| --- | --- | --- | --- | --- | --- | --- | --- | --- | --- |
| C#C[C@]1(O)CC[C@H]2[C@@H]3CCC4=Cc5oncc5C[C@]4(C)[C@H]3CC[C@@]21C [DANAZOL] | Compound metabolized | Compound NOT metabolized | Compound NOT metabolized | Compound NOT metabolized | Compound NOT metabolized | Compound NOT metabolized | Compound NOT metabolized | Compound NOT metabolized | Compound NOT metabolized |
| CC(=O)Nc1ccc(OC(C)=O)cc1 [DIACETAMATE] | Compound metabolized | Compound metabolized | Compound metabolized | Compound NOT metabolized | Compound NOT metabolized | Compound NOT metabolized | Compound NOT metabolized | Compound NOT metabolized | Compound metabolized |
